The target in experiment [1] is T1, plasma DPP-IV (Rattus norvegicus, UniProt P14740).
T1 construct: The collected blood was immediately centrifuged to isolate the plasma; from tissue; host or cells: plasma of male SD rats (Clea Japan)
The experiment in a line: Test for DPP-IV inhibiting activity duration in rats. It is filed as in vivo. The following applies: po. How it is done: (§1) The process of plasma DPP-IV activity determination was as follows: The reaction was performed in a 96-well plate. 5 μl of the collected plasma was added to an aqueous solution (95 μl/well) comprises 25 mM Tris-HCl, 140 mM sodium chloride, 10 mM potassium chloride, 1% bovine serum albumin, and 0.01 mM Gly-Pro-AMC (Bachem), and incubated at room temperature for 20 minutes.
(3) Test for DPP-IV Inhibiting Activity Duration in Rats:
Male SD rats (Clea Japan) were grouped into a test group and a control group of 5 subjects each. A test compound (10 mg/kg) was dissolved in purified water, and orally administered. Purified water alone was orally administered to the rats of the control group. One half, 6, and 12 hours after the administration, the blood was collected from each rat through the tail vein thereof. The collected blood was immediately centrifuged to isolate the plasma, and the DPP-IV activity of the plasma was measured according to the same process as in the dipeptidyl peptidase-IV (DPP-IV) inhibiting activity duration test shown in (2).
The fluorescent intensity of the well, to which was added the plasma collected from the control group, was 100%. Based on it, the DPP-IV activity of the plasma collected from the test compound-administered rats was calculated, and the activity difference between the control group and the test group was obtained. This indicated the inhibition in the test group.

The next experiment deals with T2, DPP-IV (Homo sapiens, UniProt P27487).
T2 construct: added was 5 μL of plasma collected from healthy adult volunteers; from tissue; host or cells: plasma of healthy adult volunteers
The experiment in a line: Test for determination of DPP-IV inhibiting activity (Gly-Pro-AMC cleavage by human plasma). The class given is biochemical. How it is done: (1) Test for Determination of DPP-IV Inhibiting Activity:
The reaction was performed in a 96-well flat-bottom microtiter plate. A varying concentration of the test compound was added to an aqueous solution comprised of 25 mM Tris-HCl, 140 mM sodium chloride, 10 mM potassium chloride, 1% RIA-grade bovine serum albumin, and 0.01 mM Gly-Pro-AMC (Bachem). To this reaction solution (95 μL/well), added was 5 μL of plasma collected from healthy adult volunteers, and incubated at room temperature for 20 minutes. […] The data of 3 wells under the same conditions were averaged.
The inhibition in the test group, relative to the solvent-added group was calculated, and the IC50 value thereof was obtained through logistic analysis.

For experiment [2], the target named is T3, plasma DPP-IV (Mus musculus, UniProt P28843).
T3 construct: The collected blood was immediately centrifuged to isolate the plasma; from tissue; host or cells: plasma of male ICR mice (Nippon SLC)
The experiment in a line: Test for DPP-IV inhibiting activity duration in mice. The note with it: po. The class given is in vivo. How it is done:
(2) Test for DPP-IV Inhibiting Activity Duration in Mice:
Male ICR mice (Nippon SLC) were grouped into a test group and a control group of 5 subjects each. A test compound (10 mg/kg) was dissolved in purified water, and orally administered. Purified water alone was orally administered to the mice of the control group. One half, 6, and 12 hours after the administration, the blood was collected from each mouse through the orbital venous plexus thereof. The collected blood was immediately centrifuged to isolate the plasma, and the DPP-IV activity of the plasma was measured.
as §1
The fluorescent intensity of the well, to which was added the plasma collected from the control group, was 100%. Based on it, the DPP-IV activity of the plasma collected from the test compound-administered mice was calculated, and the activity difference between the control group and the test group was obtained. This indicated the inhibition in the test group.

[3] abbreviates: male SD rats, 10 mg/kg orally, 12 h after administration, relative to control group, read-out: inhibition of plasma DPP-IV activity after 12 h.
Setting [4] is: read-out: inhibition of plasma DPP-IV activity after 6 h, male SD rats, 10 mg/kg orally, 6 h after administration, relative to control group.
Setting [5] is: plasma from healthy adult volunteers, 0.01 mM Gly-Pro-AMC, room temperature, 20 minutes, read-out: IC50 (DPP-IV inhibiting activity).
Setting [6] is: male ICR mice, 10 mg/kg orally, 12 h after administration, relative to control group, read-out: inhibition of plasma DPP-IV activity after 12 h.
[7] abbreviates: read-out: inhibition of plasma DPP-IV activity after 6 h, male ICR mice, 10 mg/kg orally, 6 h after administration, relative to control group.
The mark [8] stands for this setting: read-out: inhibition of plasma DPP-IV activity after 6 h.
Where [9] appears, read: read-out: inhibition of plasma DPP-IV activity after 12 h.

Where two headings read alike, the source gives them in different places.

The values that follow come from patent publication US7268150B2, “2-cyano-4-fluoropyrrolidine derivative or its salt” (Yamanouchi Pharmaceutical Co., Ltd., priority 2002, dated 2007).

T3 sequence (P28843 37-760 limits assumed): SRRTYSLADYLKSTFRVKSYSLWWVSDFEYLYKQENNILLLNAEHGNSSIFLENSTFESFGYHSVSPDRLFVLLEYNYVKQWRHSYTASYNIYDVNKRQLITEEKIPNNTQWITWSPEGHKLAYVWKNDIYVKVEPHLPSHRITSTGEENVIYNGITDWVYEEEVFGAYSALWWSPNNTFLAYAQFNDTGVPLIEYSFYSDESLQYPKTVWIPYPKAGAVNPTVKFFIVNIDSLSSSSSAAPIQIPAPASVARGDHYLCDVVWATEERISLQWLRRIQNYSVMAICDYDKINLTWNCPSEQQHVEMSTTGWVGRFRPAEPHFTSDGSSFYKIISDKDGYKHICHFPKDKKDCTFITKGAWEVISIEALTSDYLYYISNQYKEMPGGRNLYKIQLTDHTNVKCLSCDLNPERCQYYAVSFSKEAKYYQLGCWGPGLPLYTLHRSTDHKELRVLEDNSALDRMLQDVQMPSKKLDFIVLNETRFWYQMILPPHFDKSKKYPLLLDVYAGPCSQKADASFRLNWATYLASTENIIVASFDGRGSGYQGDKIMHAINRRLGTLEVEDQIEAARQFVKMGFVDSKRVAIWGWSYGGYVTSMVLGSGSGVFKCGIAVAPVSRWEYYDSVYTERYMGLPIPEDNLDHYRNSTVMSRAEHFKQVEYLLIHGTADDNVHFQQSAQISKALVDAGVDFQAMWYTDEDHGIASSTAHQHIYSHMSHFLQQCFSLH
T2 sequence (P27487 39-766 limits assumed): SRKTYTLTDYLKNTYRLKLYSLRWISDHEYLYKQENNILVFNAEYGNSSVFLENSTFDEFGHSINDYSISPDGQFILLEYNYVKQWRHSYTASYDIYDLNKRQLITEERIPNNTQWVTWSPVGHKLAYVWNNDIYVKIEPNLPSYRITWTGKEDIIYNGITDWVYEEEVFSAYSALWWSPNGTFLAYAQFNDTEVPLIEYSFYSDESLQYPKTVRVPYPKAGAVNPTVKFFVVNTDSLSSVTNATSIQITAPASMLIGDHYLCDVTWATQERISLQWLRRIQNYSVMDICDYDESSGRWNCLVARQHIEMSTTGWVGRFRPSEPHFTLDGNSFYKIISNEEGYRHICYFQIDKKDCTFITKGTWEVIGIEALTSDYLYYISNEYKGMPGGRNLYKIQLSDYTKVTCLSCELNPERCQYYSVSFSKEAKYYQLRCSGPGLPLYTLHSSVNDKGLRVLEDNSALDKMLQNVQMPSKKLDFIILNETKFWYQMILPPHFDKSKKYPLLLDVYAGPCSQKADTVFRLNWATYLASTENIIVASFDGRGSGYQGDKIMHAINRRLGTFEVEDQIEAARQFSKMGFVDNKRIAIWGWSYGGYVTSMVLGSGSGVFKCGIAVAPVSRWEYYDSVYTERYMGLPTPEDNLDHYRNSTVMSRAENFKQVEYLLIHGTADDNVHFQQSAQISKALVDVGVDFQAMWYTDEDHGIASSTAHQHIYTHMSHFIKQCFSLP
T1 sequence (P14740 37-767 limits assumed): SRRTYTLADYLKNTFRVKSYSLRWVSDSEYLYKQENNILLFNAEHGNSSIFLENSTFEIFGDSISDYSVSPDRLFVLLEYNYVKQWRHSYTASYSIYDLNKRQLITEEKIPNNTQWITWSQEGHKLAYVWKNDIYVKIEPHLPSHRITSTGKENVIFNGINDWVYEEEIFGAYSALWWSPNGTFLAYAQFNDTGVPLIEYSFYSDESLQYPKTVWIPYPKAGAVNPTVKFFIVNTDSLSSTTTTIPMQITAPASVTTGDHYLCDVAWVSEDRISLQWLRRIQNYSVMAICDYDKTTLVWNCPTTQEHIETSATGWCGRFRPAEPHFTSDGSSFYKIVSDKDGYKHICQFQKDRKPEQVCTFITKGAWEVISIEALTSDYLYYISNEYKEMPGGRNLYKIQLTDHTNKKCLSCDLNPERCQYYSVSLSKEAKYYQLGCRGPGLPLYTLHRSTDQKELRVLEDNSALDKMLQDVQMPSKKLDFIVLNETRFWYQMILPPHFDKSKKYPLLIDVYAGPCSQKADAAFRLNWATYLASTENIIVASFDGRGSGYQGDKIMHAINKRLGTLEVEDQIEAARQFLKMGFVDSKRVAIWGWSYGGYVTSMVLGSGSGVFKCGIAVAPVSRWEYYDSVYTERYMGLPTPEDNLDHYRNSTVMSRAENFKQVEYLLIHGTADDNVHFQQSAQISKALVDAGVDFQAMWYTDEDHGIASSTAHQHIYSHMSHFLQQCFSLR

Regarding `COCC(=O)N1CCC(NCC(=O)N2CCC[C@H]2C#N)CC1` [compound 2, reference compound], the inhibition at 10 mg/kg stood at 55% at plasma DPP-IV [1] (setting [3]) and 77% at plasma DPP-IV [1] (setting [4]).

As a reminder, the IC50 is the midpoint of a concentration-inhibition curve. In the case of `N#C[C@@H]1C[C@H](F)CN1C(=O)CNC1CCN(C=O)CC1` [Example 19], the IC50 on DPP-IV (setting [5]) amounted to 4.2 nM. The results for the inhibition at 10 mg/kg on plasma DPP-IV [2] (setting [6]) and on plasma DPP-IV [2] (setting [7]) were 61% and 72%, respectively.

Turning to `CC1(NCC(=O)N2C[C@@H](F)C[C@H]2C#N)CCN(C=O)CC1` [Example 36], at DPP-IV (setting [5]), the IC50 amounted to 7.5 nM. The inhibition at 10 mg/kg on plasma DPP-IV [1] (setting [3]) was 86%; on plasma DPP-IV [1] (setting [4]), 92%; on plasma DPP-IV [2] (setting [6]), 78%; at plasma DPP-IV [2] (setting [7]), 81%.

As to `N#C[C@@H]1C[C@H](F)CN1C(=O)CNC1CCN(C(=O)N2CCOCC2)CC1` [Example 28], the IC50 on DPP-IV (setting [5]) was 5.1 nM.

For the compound `CS(=O)(=O)N1CCC(NCC(=O)N2C[C@@H](F)C[C@H]2C#N)CC1` [Example 1, (2S,4S)-4-fluoro-1-({[1-(methanesulfonyl)piperidin-4-yl]amino}acetyl)pyrrolidine-2-carbonitrile monofumarate], the IC50 at DPP-IV (setting [5]) stood at 4.2 nM. The inhibition at 10 mg/kg came to 59% at plasma DPP-IV [2] (setting [6]) and 74% on plasma DPP-IV [2] (setting [7]).

In the case of `COC(C)S(=O)(=O)N1CCC(C)(NCC(=O)N2C[C@@H](F)C[C@H]2C#N)CC1` (stereo partly shown) [compound 3, reference compound], the inhibition at 10 mg/kg was found to be 45% at plasma DPP-IV [1] (setting [3]) and 80% on plasma DPP-IV [1] (setting [4]).

As for `CC1(NCC(=O)N2C[C@@H](F)C[C@H]2C#N)CCN(C(=O)CO)CC1` [Example 34], the IC50 on DPP-IV (setting [5]) was 8.2 nM. Moreover, the inhibition at 10 mg/kg on plasma DPP-IV [1] (setting [3]) worked out at 94%; at plasma DPP-IV [1] (setting [4]), 96%; at plasma DPP-IV [2] (setting [6]), 79%; at plasma DPP-IV [2] (setting [7]), 85%.

`CS(=O)(=O)N1CCC(NCC(=O)N2CCC[C@H]2C#N)CC1` [compound 1, reference compound]: the inhibition at 10 mg/kg stood at 38% at plasma DPP-IV [1] (setting [3]) and 65% at plasma DPP-IV [1] (setting [4]).

With `N#C[C@@H]1C[C@H](F)CN1C(=O)CNC1CCN(C(=O)CO)CC1` [Example 21], the IC50 on DPP-IV (setting [5]) was determined as 6 nM. Moreover, the inhibition at 10 mg/kg on plasma DPP-IV [2] (setting [6]) was found to be 71%; on plasma DPP-IV [2] (setting [7]) it was 78%.

Consider `CC1(NCC(=O)N2C[C@@H](F)C[C@H]2C#N)CCN(C(=O)CF)CC1` [Example 41], for which the IC50 against DPP-IV amounted to 5.9 nM. The inhibition at 10 mg/kg worked out at 93% at plasma DPP-IV [1] (setting [8]), 89% at plasma DPP-IV [1] (setting [9]), 83% on plasma DPP-IV [2] (setting [8]) and 78% at plasma DPP-IV [2] (setting [9]).
